Data reported in US12492188B2, “1H-benzo[D]imidazole derivatives as TLR9 inhibitors for the treatment of fibrosis” (BRISTOL-MYERS SQUIBB COMPANY, priority 2020, dated 2025).
Where two headings read alike, the source gives them in different places.

Legend:
Assay type in all cases: cell-based
human TLR9 = biological target: T1, human TLR9 (Homo sapiens, UniProt Q9NR96); assay: TLR9 inhibition reporter assay (HEK-Blue cells, secreted embryonic alkaline phosphatase reporter)
T1 construct: host or cells: HEK-Blue cells (HEK293-derived reporter line)
T1 sequence (Q9NR96 26-1032): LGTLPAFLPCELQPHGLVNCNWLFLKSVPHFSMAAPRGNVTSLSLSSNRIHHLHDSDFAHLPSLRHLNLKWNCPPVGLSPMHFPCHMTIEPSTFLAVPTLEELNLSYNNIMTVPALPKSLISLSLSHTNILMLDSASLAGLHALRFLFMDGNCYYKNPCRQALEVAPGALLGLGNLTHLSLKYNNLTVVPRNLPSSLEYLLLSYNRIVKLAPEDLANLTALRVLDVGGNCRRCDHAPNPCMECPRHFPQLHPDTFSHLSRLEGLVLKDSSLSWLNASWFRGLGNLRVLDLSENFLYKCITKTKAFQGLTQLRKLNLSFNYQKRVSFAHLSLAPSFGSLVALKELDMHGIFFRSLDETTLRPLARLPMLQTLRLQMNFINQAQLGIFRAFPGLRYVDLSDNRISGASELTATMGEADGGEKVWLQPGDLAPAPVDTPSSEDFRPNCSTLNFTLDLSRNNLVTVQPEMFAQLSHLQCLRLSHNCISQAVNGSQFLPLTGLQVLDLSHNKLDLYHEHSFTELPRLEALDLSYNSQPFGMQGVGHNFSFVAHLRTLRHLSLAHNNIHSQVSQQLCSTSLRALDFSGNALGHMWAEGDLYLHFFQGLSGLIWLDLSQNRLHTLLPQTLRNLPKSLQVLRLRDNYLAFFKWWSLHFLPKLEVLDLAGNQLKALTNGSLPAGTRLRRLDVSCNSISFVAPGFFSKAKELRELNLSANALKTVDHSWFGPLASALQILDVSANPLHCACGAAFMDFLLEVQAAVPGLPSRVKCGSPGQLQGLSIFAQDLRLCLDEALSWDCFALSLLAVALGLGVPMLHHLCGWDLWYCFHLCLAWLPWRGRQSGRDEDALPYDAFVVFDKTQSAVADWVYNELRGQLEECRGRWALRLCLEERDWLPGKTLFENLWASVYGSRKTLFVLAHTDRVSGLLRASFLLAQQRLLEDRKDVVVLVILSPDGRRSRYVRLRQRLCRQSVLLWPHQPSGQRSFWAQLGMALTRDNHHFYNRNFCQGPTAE
Summary of the method: (§1)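 Read-out is SEAP colour from HEK-Blue Detection medium after 22 h at 37 °C, converted to percent inhibition between agonist-plus-DMSO and reference-inhibitor wells. Receptor-overexpressing HEK-Blue cells received compound over 0.05 nM–50 μM for 30 min before agonist: gardiquimod 7.5 μM for TLR7, R848 15.9 μM for TLR8, ODN2006 5 nM for TLR9.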

human TLR7 = biological target: T2, human TLR7 (Homo sapiens, UniProt Q9NYK1); assay: TLR7 inhibition reporter assay (HEK-Blue cells, secreted embryonic alkaline phosphatase reporter); conditions: HEK-Blue cells overexpressing human TLR7, stimulated with gardiquimod 7.5 μM; read-out: TLR 7 IC50
T2 construct: host or cells: HEK-Blue cells (HEK293-derived reporter line)
T2 sequence (Q9NYK1 27-1049): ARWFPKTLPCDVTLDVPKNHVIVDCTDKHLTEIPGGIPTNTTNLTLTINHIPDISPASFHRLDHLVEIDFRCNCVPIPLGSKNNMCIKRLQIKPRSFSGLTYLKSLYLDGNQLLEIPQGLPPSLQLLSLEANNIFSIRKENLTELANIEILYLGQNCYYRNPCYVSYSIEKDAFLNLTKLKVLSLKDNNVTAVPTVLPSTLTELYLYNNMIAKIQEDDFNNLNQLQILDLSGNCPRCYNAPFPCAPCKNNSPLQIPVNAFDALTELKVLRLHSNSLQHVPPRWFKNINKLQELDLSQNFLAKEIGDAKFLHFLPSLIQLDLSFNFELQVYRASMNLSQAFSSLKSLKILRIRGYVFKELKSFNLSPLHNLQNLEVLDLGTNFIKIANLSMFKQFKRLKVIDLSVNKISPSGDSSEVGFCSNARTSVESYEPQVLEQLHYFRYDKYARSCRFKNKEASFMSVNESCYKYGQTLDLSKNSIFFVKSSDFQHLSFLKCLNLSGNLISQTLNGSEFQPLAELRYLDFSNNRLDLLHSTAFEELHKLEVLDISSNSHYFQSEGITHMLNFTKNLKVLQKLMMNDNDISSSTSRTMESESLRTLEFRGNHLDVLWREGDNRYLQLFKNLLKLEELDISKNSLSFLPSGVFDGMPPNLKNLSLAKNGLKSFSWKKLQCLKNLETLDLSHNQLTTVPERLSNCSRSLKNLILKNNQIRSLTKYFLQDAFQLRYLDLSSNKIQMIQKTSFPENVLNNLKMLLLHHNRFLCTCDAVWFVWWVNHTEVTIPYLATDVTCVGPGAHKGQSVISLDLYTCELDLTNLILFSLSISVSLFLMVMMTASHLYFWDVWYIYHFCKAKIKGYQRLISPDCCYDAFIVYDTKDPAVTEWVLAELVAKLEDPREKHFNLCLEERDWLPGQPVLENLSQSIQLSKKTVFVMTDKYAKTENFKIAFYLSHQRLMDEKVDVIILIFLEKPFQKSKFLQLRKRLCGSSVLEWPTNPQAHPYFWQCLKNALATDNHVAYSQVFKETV
Summary of the method: as §1

human TLR8 = biological target: T3, human TLR8 (Homo sapiens, UniProt Q9NR97); assay: TLR8 inhibition reporter assay (HEK-Blue cells, secreted embryonic alkaline phosphatase reporter); conditions: HEK-Blue cells overexpressing human TLR8, stimulated with R848 15.9 μM; read-out: TLR 8 IC50
T3 construct: host or cells: HEK-Blue cells (HEK293-derived reporter line)
T3 sequence (Q9NR97 27-1041): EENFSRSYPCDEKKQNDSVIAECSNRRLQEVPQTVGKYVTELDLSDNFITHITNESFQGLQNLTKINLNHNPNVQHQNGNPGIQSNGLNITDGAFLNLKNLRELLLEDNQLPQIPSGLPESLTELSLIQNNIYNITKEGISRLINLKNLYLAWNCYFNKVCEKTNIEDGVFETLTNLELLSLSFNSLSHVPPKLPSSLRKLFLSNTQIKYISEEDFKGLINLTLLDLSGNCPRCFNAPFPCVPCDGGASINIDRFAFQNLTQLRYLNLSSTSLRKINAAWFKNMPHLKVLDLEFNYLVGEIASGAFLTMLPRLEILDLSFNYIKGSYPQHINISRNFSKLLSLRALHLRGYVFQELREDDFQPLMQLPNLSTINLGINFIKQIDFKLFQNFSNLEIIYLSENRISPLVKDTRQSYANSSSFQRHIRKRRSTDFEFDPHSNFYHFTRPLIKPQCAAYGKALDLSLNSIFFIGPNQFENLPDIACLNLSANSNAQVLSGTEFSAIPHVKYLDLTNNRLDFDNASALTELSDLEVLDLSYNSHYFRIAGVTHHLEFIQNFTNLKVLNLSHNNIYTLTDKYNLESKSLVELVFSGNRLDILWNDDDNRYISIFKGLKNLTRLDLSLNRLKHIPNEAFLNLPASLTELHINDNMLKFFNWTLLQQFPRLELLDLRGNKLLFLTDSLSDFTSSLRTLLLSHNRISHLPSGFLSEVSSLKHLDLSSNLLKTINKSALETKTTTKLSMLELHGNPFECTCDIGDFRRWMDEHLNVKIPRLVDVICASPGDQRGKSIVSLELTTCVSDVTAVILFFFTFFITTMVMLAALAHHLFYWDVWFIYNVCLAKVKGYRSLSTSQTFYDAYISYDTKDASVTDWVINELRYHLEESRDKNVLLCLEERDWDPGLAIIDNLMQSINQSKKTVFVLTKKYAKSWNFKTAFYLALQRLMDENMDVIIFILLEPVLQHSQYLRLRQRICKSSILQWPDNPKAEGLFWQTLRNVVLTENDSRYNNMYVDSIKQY
Summary of the method: as §1

[1] = HEK-Blue cells overexpressing human TLR9, stimulated with ODN2006 5 nM, read-out: TLR 9 IC50
[2] = HEK-Blue human TLR9 reporter cells

Row | SMILES | IC50 (human TLR9; [1]) [nM] | IC50 (human TLR9; [2]) [nM] | IC50 (human TLR7) [nM] | IC50 (human TLR8) [nM]
1 | Cc1cc(C2CCN(C3CC4CCC(C3)N4CC3CC3)CC2)cc2c1nc(-c1ccc(S(C)(=O)=O)c(F)c1)n2C (centres unmarked) [Example 341, 6-(1-(8-(cyclopropylmethyl)-8-azabicyclo[3.2.1]octan-3-yl)piperidin-4-yl)-2-(3-fluoro-4-(methylsulfonyl)phenyl)-1,4-dimethyl-1H-benzo[d]imidazole] | 37 | 37 | 2200 | 16700
2 | Cc1cc(C2CCN(C3CC4CCC(C3)N4CC(C)C)CC2)cc2c1nc(-c1ccc(S(C)(=O)=O)c(F)c1)n2C (centres unmarked) [Example 342, 2-(3-fluoro-4-(methylsulfonyl)phenyl)-6-(1-(8-isobutyl-8-azabicyclo[3.2.1]octan-3-yl)piperidin-4-yl)-1,4-dimethyl-1H-benzo[d]imidazole] | 123 | 120 | 12700 | > 25000
3 | Cc1cc(C2CCN(C3CCN(CC(C)C)CC3)CC2)cc2c1nc(-c1ccc(S(C)(=O)=O)c(F)c1)n2C [Example 343, 2-(3-fluoro-4-(methylsulfonyl)phenyl)-6-(1′-isobutyl-[1,4′-bipiperidin]-4-yl)-1,4-dimethyl-1H-benzo[d]imidazole] | 156 | 160 | 12600 | > 25000
4 | Cc1cc(C2CCN(C3CC4CCC(C3)N4CC(C)C)CC2)cc2[nH]c(-c3ccc(S(C)(=O)=O)c(F)c3)nc12 (centres unmarked) [Example 346, 2-(3-fluoro-4-(methylsulfonyl)phenyl)-6-(1-(8-isobutyl-8-azabicyclo[3.2.1]octan-3-yl)piperidin-4-yl)-4-methyl-1H-benzo[d]imidazole] | 56 | 56 | 7600 | > 25000
5 | COc1cc(-c2nc3c(C)cc(C4CCN(C5CC6CCC(C5)N6C5CC5)CC4)cc3n2C)cn2ncnc12 (centres unmarked) [Example 354, 6-(6-(1-(8-cyclopropyl-8-azabicyclo[3.2.1]octan-3-yl)piperidin-4-yl)-1,4-dimethyl-1H-benzo[d]imidazol-2-yl)-8-methoxy-[1,2,4]triazolo[1,5-a]pyridine] | 85 | 85 | 7500 | 700
6 | COc1cc(-c2nc3c(C)cc(C4CCN(C5CC6CCC(C5)N6C(C)C)CC4)cc3n2C)cn2ncnc12 (centres unmarked) [Example 357, 6-(6-(1-(8-isopropyl-8-azabicyclo[3.2.1]octan-3-yl)piperidin-4-yl)-1,4-dimethyl-1H-benzo[d]imidazol-2-yl)-8-methoxy-[1,2,4]triazolo[1,5-a]pyridine] | 32 | 32 | 300 | 7900
7 | COc1cc(-c2nc3c(C)cc(C4CCN(C5CC6CCC(C5)N6CC(C)C)CC4)cc3[nH]2)cn2ncnc12 (centres unmarked) [Example 359, 6-(6-(1-(8-isobutyl-8-azabicyclo[3.2.1]octan-3-yl)piperidin-4-yl)-4-methyl-1H-benzo[d]imidazol-2-yl)-8-methoxy-[1,2,4]triazolo[1,5-a]pyridine] | 76 | 76 | 2900 | 14900

These reach a lower IC50 (human TLR9; [1]). Values come first.

Row | IC50 (human TLR9; [1]) [nM] | IC50 (human TLR9; [2]) [nM] | IC50 (human TLR7) [nM] | IC50 (human TLR8) [nM] | SMILES
8 | 12.4 | 120 | 10800 | > 50000 | Cc1cc(C2CCN(C3CC4CCC(C3)N4C(C)C)CC2)cc2c1nc(-c1ccc(S(C)(=O)=O)c(F)c1)n2C (centres unmarked) [Example 344, 2-(3-fluoro-4-(methylsulfonyl)phenyl)-6-(1-(8-isopropyl-8-azabicyclo[3.2.1]octan-3-yl)piperidin-4-yl)-1,4-dimethyl-1H-benzo[d]imidazole]
9 | 16 | 16 | 100 | 8200 | COc1cc(-c2nc3c(C)cc(C4CCN(C5CCN(CC(C)C)CC5)CC4)cc3n2C)cn2ncnc12 [Example 353, 6-(6-(1′-isobutyl-[1,4′-bipiperidin]-4-yl)-1,4-dimethyl-1H-benzo[d]imidazol-2-yl)-8-methoxy-[1,2,4]triazolo[1,5-a]pyridine]
10 | 8.1 | 8.1 | 100 | 2800 | COc1cc(-c2nc3c(C)cc(C4CCN(C5CC6CCC(C5)N6CC5CC5)CC4)cc3n2C)cn2ncnc12 (centres unmarked) [Example 358, 6-(6-(1-(8-(cyclopropylmethyl)-8-azabicyclo[3.2.1]octan-3-yl)piperidin-4-yl)-1,4-dimethyl-1H-benzo[d]imidazol-2-yl)-8-methoxy-[1,2,4]triazolo[1,5-a]pyridine]
11 | 9.7 | 9.7 | 700 | 26300 | COc1cc(-c2nc3c(C)cc(C4CCN(C5CC6CCC(C5)N6C5CC5)CC4)cc3[nH]2)cn2ncnc12 (centres unmarked) [Example 360, 6-(6-(1-(8-cyclopropyl-8-azabicyclo[3.2.1]octan-3-yl)piperidin-4-yl)-4-methyl-1H-benzo[d]imidazol-2-yl)-8-methoxy-[1,2,4]triazolo[1,5-a]pyridine]
